Data on six compounds can be found in ChEMBL document CHEMBL1146460, “Caulibugulones A-F, novel cytotoxic isoquinoline quinones and iminoquinones from the marine bryozoan Caulibugula intermis” (J Nat Prod, 2004).

This assay in a line: Cytotoxicity against wild type mouse IC2 cells after 48 hrs by MTT assay. The note with it: IC2, 48 h.

In brackets after ≈: the same amount, converted by molar mass.

With `CNC1=C(Br)C(=O)c2ccncc2C1=O` [CAULIBUGULONE B], the IC50 came out at 0.28 mg/L (≈ 1.05 µM).
In turn, `CNC1=CC(=O)c2ccncc2C1=O` [CAULIBUGULONE A] gave an IC50 of 0.34 mg/L (≈ 1.81 µM). This IC50 and that of the compound before are within 1.5-fold of each other.
As for `CNC1=C/C(=N\CCO)c2ccncc2C1=O` [CAULIBUGULONE F], the IC50 amounted to 0.1 mg/L (≈ 0.432 µM).
As for `CNC1=CC(=N)c2ccncc2C1=O` [CAULIBUGULONE E], the IC50 was 0.03 mg/L (≈ 0.16 µM).
With `O=C1C=C(NCCO)C(=O)c2cnccc21` [CAULIBUGULONE D], the IC50 is 1.67 mg/L (≈ 7.65 µM).
In the case of `CNC1=C(Cl)C(=O)c2ccncc2C1=O` [CAULIBUGULONE C], inhibition was half-maximal at 0.22 mg/L (≈ 0.988 µM) (IC50).
